Literature values in patent US20080038219A1, “Novel Composition for a Topical Skin Treatment Base and Medicated Applications Thereof” (CALGENEX CORPORATION, priority 2006, published 2008).

Tested on: mild-to-moderate acne
Conditions: versus tretinoin 0.05%, benzoyl peroxide 5%, topical erythromycin 2%

Compound: O=C(O)CCCCCCCC(=O)O [azelaic acid]
- efficacy in treatment of mild-to-moderate acne: efficacy comparable
